Test results from PubChem BioAssay (NCI).
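Method: 48-hour compound exposure of cells in 96-well plates, five concentrations, linear interpolation of endpoints. Here, GI50 denotes the concentration required for 50% inhibition of growth. TGI: total growth inhibition.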

Tests used:
Assay in all cases: NCI anticancer screen, dose series, 48 h
[1] = test system: OVCAR-8 ovarian
[2] = test system: RXF 393 renal
[3] = test system: EKVX NSCLC
[4] = test system: UO-31 renal
[5] = test system: CAKI-1 renal
[6] = test system: K-562 leukemia
[7] = test system: HCT-116 colon
[8] = test system: KM12 colon
[9] = test system: HOP-62 NSCLC
[10] = test system: RPMI-8226 leukemia
[11] = test system: NCI-H460 lung
[12] = test system: BT-549 breast
[13] = test system: TK-10 renal
[14] = test system: UACC-257 melanoma
[15] = test system: SF-539 CNS
[16] = test system: A549 NSCLC
[17] = test system: ACHN renal
[18] = test system: HL-60(TB) leukemia
[19] = test system: U251 CNS
[20] = test system: SK-OV-3 ovarian
[21] = test system: HOP-92 NSCLC
[22] = test system: MDA-MB-435
[23] = test system: NCI-H522 lung
[24] = test system: NCI-H226 lung
[25] = test system: UACC-62 melanoma
[26] = test system: A498 renal
[27] = test system: NCI-H23 lung
[28] = test system: SF-268 CNS
[29] = test system: SNB-75 CNS
[30] = test system: CCRF-CEM leukemia
[31] = test system: MCF7 breast
[32] = test system: DU-145 prostate
[33] = test system: IGROV1 ovarian
[34] = test system: SNB-19 CNS
[35] = test system: 786-0 renal
[36] = test system: HS 578T breast
[37] = test system: T-47D breast

SMILES: C#C[C@]1(O)CC[C@H]2[C@@H]3CC=C4c5sc(Nc6nc(C)cc(OC)n6)nc5CC[C@]4(C)[C@H]3CC[C@@]21C
- GI50 [1]: 4160 nM
- TGI [1]: > 100000 nM
- GI50 [2]: 161 nM
- TGI [2]: 497 nM
- GI50 [3]: 2390 nM
- TGI [3]: > 100000 nM
- GI50 [4]: 575 nM
- TGI [4]: 3180 nM
- GI50 [5]: 1550 nM
- TGI [5]: > 100000 nM
- GI50 [6]: 528 nM
- TGI [6]: > 100000 nM
- GI50 [7]: 1240 nM
- TGI [7]: > 100000 nM
- GI50 [8]: 3160 nM
- TGI [8]: > 100000 nM
- GI50 [9]: 2010 nM
- TGI [9]: 35200 nM
- GI50 [10]: 239 nM
- TGI [10]: 899 nM
- GI50 [11]: 1820 nM
- TGI [11]: > 100000 nM
- GI50 [12]: 4500 nM
- TGI [12]: 79900 nM
- GI50 [13]: 14900 nM
- TGI [13]: > 100000 nM
- GI50 [14]: 1740 nM
- TGI [14]: 4820 nM
- GI50 [15]: 264 nM
- TGI [15]: 1430 nM
- GI50 [16]: 2970 nM
- TGI [16]: > 100000 nM
- GI50 [17]: 1190 nM
- TGI [17]: > 100000 nM
- GI50 [18]: 531 nM
- TGI [18]: 5380 nM
- GI50 [19]: 575 nM
- TGI [19]: 73100 nM
- GI50 [20]: 1550 nM
- TGI [20]: 9130 nM
- GI50 [21]: 2650 nM
- TGI [21]: 7690 nM
- GI50 [22]: 2350 nM
- TGI [22]: > 100000 nM
- GI50 [23]: 3020 nM
- TGI [23]: > 100000 nM
- GI50 [24]: > 100000 nM
- TGI [24]: > 100000 nM
- GI50 [25]: 540 nM
- TGI [25]: 2730 nM
- GI50 [26]: 1510 nM
- TGI [26]: 5930 nM
- GI50 [27]: 3930 nM
- TGI [27]: > 100000 nM
- GI50 [28]: 5470 nM
- TGI [28]: > 100000 nM
- GI50 [29]: 864 nM
- TGI [29]: 84800 nM
- GI50 [30]: 1210 nM
- TGI [30]: > 100000 nM
- GI50 [31]: 1410 nM
- TGI [31]: > 100000 nM
- GI50 [32]: 3250 nM
- TGI [32]: > 100000 nM
- GI50 [33]: 3440 nM
- TGI [33]: > 100000 nM
- GI50 [34]: 986 nM
- TGI [34]: > 100000 nM
- GI50 [35]: 379 nM
- TGI [35]: 2280 nM
- GI50 [36]: 323 nM
- TGI [36]: 2190 nM
- GI50 [37]: 2570 nM
- TGI [37]: > 100000 nM
